From ChEMBL document CHEMBL1201862, “PubChem BioAssay data set” (2004)
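Cultured in 96-well plates, cells were exposed to test compound for 48 hours across five concentrations. Here, GI50 denotes the concentration required for 50% inhibition of growth.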 Activity calls are given as the source filed them. Cut-off read from the data, not from the text of the source: active = GI50 up to about 1.1 µM and inactive = higher.

Columns and labels:
Experiment in all cases: NCI anticancer screen, dose series, 48 h
[1] = test system: 786-0
[2] = test system: A498
[3] = test system: A549
[4] = test system: ACHN
[5] = test system: CAKI-1
[6] = test system: CCRF-CEM
[7] = test system: COLO 205
[8] = test system: DLD-1
[9] = test system: DMS-114
[10] = test system: DMS-273
[11] = test system: EKVX
[12] = test system: HCC 2998
[13] = test system: HCT-116
[14] = test system: HCT-15
[15] = test system: HL-60
[16] = test system: HOP-18
[17] = test system: HOP-62
[18] = test system: HT-29
[19] = test system: IGROV-1
[20] = test system: K562
[21] = test system: KM-20L2
[22] = test system: KM12
[23] = test system: LOX IMVI
[24] = test system: LXFL 529
[25] = test system: M14
[26] = test system: M19-MEL
[27] = test system: MOLT-4
[28] = test system: Malme-3M
[29] = test system: NCI-H226
[30] = test system: NCI-H23
[31] = test system: NCI-H460
[32] = test system: NCI-H522
[33] = test system: OVCAR-3
[34] = test system: OVCAR-4
[35] = test system: OVCAR-8
[36] = test system: RPMI-8226
[37] = test system: RXF 393
[38] = test system: RXF 631
[39] = test system: SF-268
[40] = test system: SF-295
[41] = test system: SF-539
[42] = test system: SK-MEL-28
[43] = test system: SK-MEL-2
[44] = test system: SK-MEL-5
[45] = test system: SK-OV-3
[46] = test system: SN12C
[47] = test system: SNB-19
[48] = test system: SNB-75
[49] = test system: SNB-78
[50] = test system: SW-620
[51] = test system: TK-10
[52] = test system: U-251
[53] = test system: UACC-257
[54] = test system: UACC-62
[55] = test system: UO-31
[56] = test system: XF498
[57] = test system: HOP-92
[58] = test system: OVCAR-5
[59] = test system: SR

O=C(O)c1cc(Cl)cc(NC(=O)C(Cl)Cl)c1Cl
GI50 [1]: > 100 µM (inactive) | GI50 [2]: > 100 µM (inactive) | GI50 [3]: > 100 µM (inactive) | GI50 [4]: > 100 µM (inactive) | GI50 [5]: > 100 µM (inactive) | GI50 [6]: > 100 µM (inactive) | GI50 [7]: > 100 µM (inactive) | GI50 [8]: > 100 µM (inactive) | GI50 [9]: > 100 µM (inactive) | GI50 [10]: > 100 µM (inactive) | GI50 [11]: > 100 µM (inactive) | GI50 [12]: > 100 µM (inactive) | GI50 [13]: > 100 µM (inactive) | GI50 [14]: > 100 µM | GI50 [15]: > 100 µM (inactive) | GI50 [16]: > 100 µM (inactive) | GI50 [17]: > 100 µM (inactive) | GI50 [18]: > 100 µM (inactive) | GI50 [19]: > 100 µM (inactive) | GI50 [20]: > 100 µM (inactive) | GI50 [21]: > 100 µM (inactive) | GI50 [22]: > 100 µM (inactive) | GI50 [23]: > 100 µM (inactive) | GI50 [24]: > 100 µM (inactive) | GI50 [25]: > 100 µM (inactive) | GI50 [26]: > 100 µM (inactive) | GI50 [27]: > 100 µM (inactive) | GI50 [28]: > 100 µM (inactive) | GI50 [29]: > 100 µM (inactive) | GI50 [30]: > 100 µM (inactive) | GI50 [31]: > 100 µM (inactive) | GI50 [32]: > 100 µM (inactive) | GI50 [33]: > 100 µM (inactive) | GI50 [34]: > 100 µM (inactive) | GI50 [35]: > 100 µM (inactive) | GI50 [36]: > 100 µM (inactive) | GI50 [37]: > 100 µM (inactive) | GI50 [38]: > 100 µM (inactive) | GI50 [39]: > 100 µM (inactive) | GI50 [40]: > 100 µM (inactive) | GI50 [41]: > 100 µM (inactive) | GI50 [42]: > 100 µM (inactive) | GI50 [43]: > 100 µM (inactive) | GI50 [44]: > 100 µM (inactive) | GI50 [45]: > 100 µM (inactive) | GI50 [46]: > 100 µM (inactive) | GI50 [47]: > 100 µM (inactive) | GI50 [48]: > 100 µM (inactive) | GI50 [49]: > 100 µM (inactive) | GI50 [50]: > 100 µM (inactive) | GI50 [51]: > 100 µM (inactive) | GI50 [52]: > 100 µM (inactive) | GI50 [53]: > 100 µM (inactive) | GI50 [54]: > 100 µM (inactive) | GI50 [55]: > 100 µM (inactive) | GI50 [56]: > 100 µM (inactive)

Cc1ccccc1-n1c(=S)[nH]c2c(sc(=O)n2-c2ccccc2C)c1=O
GI50 [1]: > 100 µM (inactive) | GI50 [2]: > 100 µM (inactive) | GI50 [3]: > 100 µM (inactive) | GI50 [4]: > 100 µM (inactive) | GI50 [5]: > 100 µM (inactive) | GI50 [6]: > 100 µM (inactive) | GI50 [7]: > 100 µM (inactive) | GI50 [8]: > 100 µM (inactive) | GI50 [9]: > 100 µM (inactive) | GI50 [10]: > 100 µM (inactive) | GI50 [11]: > 100 µM (inactive) | GI50 [12]: > 100 µM (inactive) | GI50 [13]: > 100 µM (inactive) | GI50 [14]: > 100 µM | GI50 [15]: > 100 µM (inactive) | GI50 [16]: > 100 µM (inactive) | GI50 [17]: > 100 µM (inactive) | GI50 [57]: > 100 µM (inactive) | GI50 [18]: > 100 µM (inactive) | GI50 [19]: > 100 µM (inactive) | GI50 [20]: > 100 µM (inactive) | GI50 [21]: > 100 µM (inactive) | GI50 [22]: > 100 µM (inactive) | GI50 [24]: > 100 µM (inactive) | GI50 [25]: > 100 µM (inactive) | GI50 [26]: > 100 µM (inactive) | GI50 [27]: > 100 µM (inactive) | GI50 [28]: > 100 µM (inactive) | GI50 [29]: > 100 µM (inactive) | GI50 [30]: > 100 µM (inactive) | GI50 [31]: > 100 µM (inactive) | GI50 [32]: > 100 µM (inactive) | GI50 [33]: > 100 µM (inactive) | GI50 [34]: > 100 µM (inactive) | GI50 [58]: > 100 µM (inactive) | GI50 [35]: > 100 µM (inactive) | GI50 [36]: > 100 µM (inactive) | GI50 [37]: > 100 µM (inactive) | GI50 [38]: > 100 µM (inactive) | GI50 [39]: > 100 µM (inactive) | GI50 [40]: > 100 µM (inactive) | GI50 [41]: > 100 µM (inactive) | GI50 [42]: > 100 µM (inactive) | GI50 [43]: > 100 µM (inactive) | GI50 [44]: > 100 µM (inactive) | GI50 [45]: > 100 µM (inactive) | GI50 [46]: > 100 µM (inactive) | GI50 [47]: > 100 µM (inactive) | GI50 [48]: > 100 µM (inactive) | GI50 [49]: > 100 µM (inactive) | GI50 [59]: > 100 µM (inactive) | GI50 [50]: > 100 µM (inactive) | GI50 [52]: > 100 µM (inactive) | GI50 [53]: > 100 µM (inactive) | GI50 [54]: > 100 µM (inactive) | GI50 [55]: > 100 µM (inactive)
